# Source: patent US10945432B2, “Active compound combinations comprising a (thio)carboxamide derivative and a fungicidal compound” (BAYER CROPSCIENCE AKTIENGESELLSCHAFT, priority 2013, dated 2021)
# Key:
# Type in all cases: in vivo
# Botrytis cinerea = assay: Botrytis test (beans)/preventive; details: Table B1, 2 days after inoculation
# Protocol: (§1) • Solvent: 24.5 parts by weight of acetone • 24.5 parts by weight of dimethylacetamide • Emulsifier: 1 part by weight of alkylaryl polyglycol ether
# (§2) To produce a suitable preparation of active compound, 1 part by weight of active compound is mixed with the stated amounts of solvent and emulsifier, and the concentrate is diluted with water to the desired concentration.
# To test for preventive activity, young plants are sprayed with the preparation of active compound. After the spray coating has dried on, 2 small pieces of agar covered with growth of Botrytis cinerea are placed on each leaf. The inoculated plants are placed in a darkened chamber at 20° C. and a relative atmospheric humidity of 100%.
# 2 days after the inoculation, the size of the lesions on the leaves is evaluated. 0% means an efficacy which corresponds to that of the untreated control, while an efficacy of 100% means that no disease is observed.
# Pyrenophora teres = assay: Pyrenophora teres-test (barley)/preventive; details: Table C1, 8 days after inoculation
# Protocol: (§3) • Solvent: 49 parts by weight of N,N-dimethylacetamide • Emulsifier: 1 part by weight of alkylaryl polyglycol ether
# (§4) To produce a suitable preparation of active compound, 1 part by weight of active compound or active compound combination is mixed with the stated amounts of solvent and emulsifier, and the concentrate is diluted with water to the desired concentration.
# (§5) To test for preventive activity, young plants are sprayed with the preparation of active compound or active compound combination at the stated rate of application. After the spray coating has been dried, the plants are sprayed with a spore suspension of Pyrenophora teres. The plants remain for 48 hours in an incubation cabinet at approximately 20° C. and a relative atmospheric humidity of approximately 100%. The plants are placed in the greenhouse at a temperature of approximately 20° C. and a relative atmospheric humidity of approximately 80%.
# The test is evaluated 8 days after the inoculation. 0% means an efficacy which corresponds to that of the untreated control, while an efficacy of 100% means that no disease is observed.
# Venturia inaequalis = assay: Venturia test (apples)/preventive; details: 10 days after inoculation
# Protocol: as §1, §2
# To test for preventive activity, young plants are sprayed with the preparation of active compound at the stated rate of application. After the spray coating has dried on, the plants are inoculated with an aqueous conidia suspension of the causal agent of apple scab (Venturia inaequalis) and then remain for 1 day in an incubation cabinet at approximately 20° C. and a relative atmospheric humidity of 100%. The plants are then placed in a greenhouse at approximately 21° C. and a relative atmospheric humidity of approximately 90%.
# The test is evaluated 10 days after the inoculation. 0% means an efficacy which corresponds to that of the untreated control, while an efficacy of 100% means that no disease is observed.
# Septoria tritici = assay: Septoria tritici-test (wheat)/preventive; details: 21 days after inoculation
# Protocol: as §3, §4
# as §5, with “suspension of Septoria tritici. The plants” for “suspension of Pyrenophora teres. The plants”, “of approximately 100% and afterwards for 60 hours at approximately 15° C. in a translucent incubation cabinet at a relative atmospheric humidity of approximately 100%. The” for “of approximately 100%. The”, “of approximately 15° C. and” for “of approximately 20° C. and”
# The test is evaluated 21 days after the inoculation. 0% means an efficacy which corresponds to that of the untreated control, while an efficacy of 100% means that no disease is observed.
# Sphaerotheca fuliginea = assay: Sphaerotheca test (cucumbers)/preventive; details: Table E1, 7 days after inoculation
# Protocol: as §1, §2
# To test for preventive activity, young plants are sprayed with the preparation of active compound at the stated rate of application. After the spray coating has dried on, the plants are inoculated with an aqueous spore suspension of Sphaerotheca fuliginea. The plants are then placed in a greenhouse at approximately 23° C. and a relative atmospheric humidity of approximately 70%.
# The test is evaluated 7 days after the inoculation. 0% means an efficacy which corresponds to that of the untreated control, while an efficacy of 100% means that no disease is observed.
# Alternaria solani = assay: Alternaria test (tomatoes)/preventive; details: 3 days after inoculation
# Protocol: as §1, §2
# To test for preventive activity, young plants are sprayed with the preparation of active compound at the stated rate of application. After the spray coating has dried on, the plants are inoculated with an aqueous spore suspension of Alternaria solani. The plants are then placed in an incubation cabinet at approximately 20° C. and a relative atmospheric humidity of 100%.
# The test is evaluated 3 days after the inoculation. 0% means an efficacy which corresponds to that of the untreated control while an efficacy of 100% means that no disease is observed.
smiles,measurement,setting,value
"CC1(C)N=C(c2cnc3ccccc3c2)c2ccccc2C1(F)F [b27, 3-(4,4-difluoro-3,3-dimethyl-3,4-dihydroisoquinolin-1-yl)quinoline]",Efficacy in % found,Botrytis cinerea; 1 ppm a.i.,60%
same,Efficacy in % found,Pyrenophora teres; 60 ppm a.i.,38%
same,Efficacy in % found,Pyrenophora teres; 240 ppm a.i.,75%
same,Efficacy in % found,"Venturia inaequalis; Table F1, 0.5 ppm a.i.",23%
"CON(C(=O)c1cn(C)nc1C(F)F)C(C)Cc1c(Cl)cc(Cl)cc1Cl (centres unmarked) [b29, 3-(difluoromethyl)-N-methoxy-1-methyl-N-[1-(2,4,6-trichlorophenyl)propan-2-yl]-1H-pyrazole-4-carboxamide]",Efficacy in % found,"Septoria tritici; Table D1, 5 ppm a.i.",94%
same,Efficacy in % found,Sphaerotheca fuliginea; 0.25 ppm a.i.,30%
same,Efficacy in % found,Sphaerotheca fuliginea; 1 ppm a.i.,30%
"Cc1nn(C)c(Nc2c(F)cc(Cl)cc2F)c1-c1ccc(F)cc1Cl [b39, N-(4-chloro-2,6-difluorophenyl)-4-(2-chloro-4-fluorophenyl)-1,3-dimethyl-1H-pyrazol-5-amine]",Efficacy in % found,"Alternaria solani; Table A1, 1 ppm a.i.",17%
same,Efficacy in % found,"Septoria tritici; Table D1, 60 ppm a.i.",50%
same,Efficacy in % found,"Septoria tritici; Table D1, 240 ppm a.i.",88%
"CC(O)(Cn1cncn1)c1ccc(Oc2ccc(Cl)cc2)cc1C(F)(F)F (centres unmarked) [b40, 2-[4-(4-chlorophenoxy)-2-(trifluoromethyl)phenyl]-1-(1H-1,2,4-triazol-1-yl)propan-2-ol]",Efficacy in % found,"Alternaria solani; Table A1, 2.5 ppm a.i.",66%
same,Efficacy in % found,Sphaerotheca fuliginea; 2.5 ppm a.i.,37%
same,Efficacy in % found,Sphaerotheca fuliginea; 10 ppm a.i.,85%
"CCC(O)(Cn1cncn1)c1ccc(Oc2ccc(Cl)cc2)cc1C(F)(F)F (centres unmarked) [b41, 2-[4-(4-chlorophenoxy)-2-(trifluoromethyl)phenyl]-1-(1H-1,2,4-triazol-1-yl)butan-2-ol]",Efficacy in % found,Botrytis cinerea; 10 ppm a.i.,36%
same,Efficacy in % found,Pyrenophora teres; 15 ppm a.i.,25%
same,Efficacy in % found,Pyrenophora teres; 60 ppm a.i.,0%
"CC1(C)CN=C(c2cnc3ccccc3c2)c2cccc(F)c2O1 [b45, 9-fluoro-2,2-dimethyl-5-(quinolin-3-yl)-2,3-dihydro-1,4-benzoxazepine]",Efficacy in % found,"Alternaria solani; Table A2, 0.5 ppm a.i.",24%
same,Efficacy in % found,"Septoria tritici; Table D2, 50 ppm a.i.",0%
same,Efficacy in % found,"Septoria tritici; Table D2, 200 ppm a.i.",0%
same,Efficacy in % found,"Venturia inaequalis; Table F2, 1 ppm a.i.",0%
"Cc1nc2c(F)cccc2cc1Oc1cccc(F)c1C(C)(C)O [b46, 2-{2-fluoro-6-[(8-fluoro-2-methylquinolin-3-yl)oxy]phenyl}propan-2-ol]",Efficacy in % found,"Alternaria solani; Table A2, 0.5 ppm a.i.",18%
same,Efficacy in % found,"Alternaria solani; Table A2, 1 ppm a.i.",24%
same,Efficacy in % found,"Septoria tritici; Table D2, 50 ppm a.i.",0%
same,Efficacy in % found,"Septoria tritici; Table D2, 200 ppm a.i.",67%
same,Efficacy in % found,"Venturia inaequalis; Table F2, 0.5 ppm a.i.",18%
"Cc1nc2c(F)c(F)ccc2cc1Oc1cccc(F)c1C(C)(C)O [b47, 2-{2-[(7,8-difluoro-2-methylquinolin-3-yl)oxy]-6-fluorophenyl}propan-2-ol]",Efficacy in % found,"Alternaria solani; Table A2, 0.5 ppm a.i.",9%
same,Efficacy in % found,"Alternaria solani; Table A2, 1 ppm a.i.",29%
same,Efficacy in % found,"Septoria tritici; Table D2, 50 ppm a.i.",0%
same,Efficacy in % found,"Septoria tritici; Table D2, 200 ppm a.i.",67%
same,Efficacy in % found,"Venturia inaequalis; Table F2, 0.5 ppm a.i.",30%
"CC(C)c1ccc(Cl)cc1CN(C(=O)c1c(C(F)F)nn(C)c1F)C1CC1 [compound A5, N-(5-chloro-2-isopropylbenzyl)-N-cyclopropyl-3-(difluoromethyl)-5-fluoro-1-methyl-1H-pyrazole-4-carboxamide]",Efficacy in % found,"Alternaria solani; Table A1, 0.5 ppm a.i.",38%
same,Efficacy in % found,"Alternaria solani; Table A1, 1 ppm a.i.",30%
same,Efficacy in % found,"Alternaria solani; Table A2, 0.5 ppm a.i.",0%
same,Efficacy in % found,"Alternaria solani; Table A2, 1 ppm a.i.",41%
same,Efficacy in % found,Botrytis cinerea; 1 ppm a.i.,15%
same,Efficacy in % found,Pyrenophora teres; 10 ppm a.i.,13%
same,Efficacy in % found,"Septoria tritici; Table D1, 5 ppm a.i.",50%
same,Efficacy in % found,"Septoria tritici; Table D1, 10 ppm a.i.",50%
same,Efficacy in % found,"Septoria tritici; Table D2, 10 ppm a.i.",17%
same,Efficacy in % found,"Septoria tritici; Table D2, 20 ppm a.i.",67%
same,Efficacy in % found,Sphaerotheca fuliginea; 0.5 ppm a.i.,30%
same,Efficacy in % found,Sphaerotheca fuliginea; 1 ppm a.i.,37%
same,Efficacy in % found,"Venturia inaequalis; Table F1, 0.5 ppm a.i.",0%
same,Efficacy in % found,"Venturia inaequalis; Table F1, 1 ppm a.i.",0%
same,Efficacy in % found,"Venturia inaequalis; Table F2, 0.5 ppm a.i.",0%
same,Efficacy in % found,"Venturia inaequalis; Table F2, 1 ppm a.i.",0%
same,Efficacy in % found,"Venturia inaequalis; Table F2, 2 ppm a.i.",29%
